Laboratory results: article PMC4967449, “The role of acid-base imbalance in statin-induced myotoxicity” (Translational Research, 2016)
Structures can show the parent of a compound that is named as a salt. Where two headings read alike, the source gives them in different places.

How the values were obtained:
[1] = test system: undifferentiated C2C12 cells; assay: Cellular uptake of statins by undifferentiated C2C12 cells in medium of altered pH; type: cell-based, mouse; conditions: 1 μmol/L, LC MS/MS
Experimental: (§1) Samples temperature was kept at 4°C, and column temperature was set at 40°C.

[2] = test system: differentiated C2C12 cells; assay: Cellular uptake of statins by differentiated C2C12 cells in medium of altered pH; type: cell-based, mouse; conditions: for intracellular levels of pravastatin: 1 μmol/L, LC MS/MS
Experimental: as §1

[3] = test system: undifferentiated C2C12 cells; assay: MTT cytotoxicity in undifferentiated C2C12 cells in medium of different pH; type: cell-based; conditions: Mus musculus, 72 hours, read-out: IC50 values of statins
Experimental: (§2) The effect of medium pH alteration on the cytotoxicity of statins was evaluated by MTT and LDH cytotoxicity assays. Both undifferentiated and differentiated C2C12 cells were used in these studies. […] Before starting treatment, the medium was replaced by a fresh one with modified pH (6.8, 7.4, and 7.8). […] Positive control samples with 100% cell death were obtained by treating cells with 1% Triton X-100. Produced formazan crystals were dissolved in DMSO, and the absorbance was measured at 570 nm using EnVision Multilabel Plate Reader (PerkinElmer). Results were expressed as percentage of the control, and IC50 was calculated using prism 6 (GraphPad Software Inc).

[4] = test system: differentiated C2C12 cells; assay: MTT cytotoxicity in differentiated C2C12 cells in medium of different pH; type: cell-based; conditions: Mus musculus, acidic medium (pH 6.8), 72 hours, read-out: IC50 values of statins
Experimental: as §2

[5] = Hydrolysis of the lactone form of statins in phosphate buffer saline of modified pH; type: physicochemical; conditions: phosphate buffer saline (PBS), 37°C
Experimental: (§3) The pH of DMEM culture medium was adjusted to the target values (6.8–7.8) by adding an appropriate volume of either 1.0 N HCl or NaOH to a medium containing 20 mmol/L 4-2-hydroxyethyl-1-piperazineethanesulfonic acid (HEPES) buffer. The pH was measured at incubation temperature (37°C) by Mettler Toledo T50 pH titrator. […] After equilibration, minor adjustment in pH was occasionally required to reach the desired final pH.[35] Maintaining medium under constant CO2 environment of 5% stabilizes the pH through CO2-HCO3^− equilibrium.[36] The pH of phosphate buffer saline (PBS) was adjusted to the target values (6.8–7.8) in the same way without the need for equilibration.
(§4) The interconversion of the lactone and hydroxy acid forms of simvastatin and pravastatin was investigated by incubating tested compounds with human plasma, PBS, and DMEM culture medium of defined pH values at 37°C for a predetermined period of time. […] Human plasma and PBS samples were incubated in C25 classic incubator shaker (New Brunswick Scientific). For DMEM samples, CO2 supply was maintained at 5% throughout experiment in a tissue culture incubator. The pH of different matrices was adjusted to simulate physiological pH, acidosis, and alkalosis as described previously. After incubation, the interconversion reaction was stopped at predetermined time points by adding 50 μL of ice-cold ammonium acetate buffer (100 mmol/L, pH 4.5) to 100 μL of tested samples.[14] Six replicates were tested at each pH level, and the concentrations of parent and corresponding forms were measured by fully validated HPLC analytical methods.
(§5) Fully validated HPLC-UV methods were used to determine the concentrations of the lactone and the corresponding hydroxy acid forms of simvastatin and pravastatin after interconversion studies in human plasma, PBS, and DMEM culture medium of different pH. Samples for HPLC analysis were prepared by protein precipitation followed by liquid-liquid extraction. A 100 μL of human plasma or DMEM samples were pipetted into 1.5 mL Eppendorf tubes, and 50 μL of ammonium acetate buffer (100 mmol/L, pH 4.5) along with 10 μL of internal standard solution (4,4-dichlorodiphenyltrichloroethane [DDT] or griseofulvin 100 μg/mL for simvastatin and pravastatin containing samples, respectively) was added, and samples were vortex mixed for 30 seconds. Proteins were precipitated by the addition of 300 μL of chilled ACN, and samples were vortex mixed for 1 minute and then centrifuged at 900g for 10 minutes at 4°C. After centrifugation, the ACN layer was transferred into new glass test tubes, and 3 mL of methyl tert-butyl ether were added to each sample, vortex mixed for 10 minutes, and centrifuged at 1,615g for 10 minutes at 4°C. Finally, the upper organic layers were separated using glass Pasteur pipette, transferred into new glass tubes, and the contents of the tubes were evaporated to dryness using Techne Sample Concentrator (Bibby Scientific Ltd, UK). The dry residues were reconstituted with 100 μL of the mobile phase, vortex mixed, and placed into appropriate HPLC vials. Samples from PBS were extracted in the same way with one exception that the protein precipitation step was skipped.
(§6) HPLC analysis was performed using Waters Alliance 2965 separation module equipped with Waters 996 Photodiode Array Detector and integrated autosampler. System control and data processing were performed using Empower software. Chromatographic separation was achieved by ACE Excel Super C18 column (100 × 3 mm, 3 μm) under isocratic conditions with mobile phase consisting of ACN: 5 mmol/L ammonium acetate buffer, pH 4.5 (73:27 and 55:45, v/v for simvastatin and pravastatin samples, respectively). The flow rate was set at 0.4 mL/min for simvastatin and 0.3 mL/min for pravastatin samples. Samples temperature was kept at 4°C, and column temperature was set at 40°C. Chromatographic separation was monitored by photodiode array detector at 238 nm with an injection volume of 20 μL.

[6] = Interconversion / hydrolysis of the lactone form of statins in human plasma of modified pH; type: in vitro ADME; conditions: for proportion of lactone converted to the hydroxy acid form: 50 μmol/L, 24 hours at 37°C; for half-life at 50 μmol/L: 37°C
Experimental: as §4, §5
as §6, with “40°C.” for “40°C. Chromatographic separation was monitored by photodiode array detector at 238 nm with an injection volume of 20 μL.”

[7] = Hydrolysis of the lactone form of statins in DMEM culture medium of modified pH; type: physicochemical; conditions: 37°C
Experimental: as §3, §4
Fully validated HPLC-UV methods were used to determine the concentrations of the lactone and the corresponding hydroxy acid forms of simvastatin and pravastatin after interconversion studies in human plasma, PBS, and DMEM culture medium of different pH. Samples for HPLC analysis were prepared by protein precipitation followed by liquid-liquid extraction. A 100 μL of human plasma or DMEM samples were pipetted into 1.5 mL Eppendorf tubes, and 50 μL of ammonium acetate buffer (100 mmol/L, pH 4.5) along with 10 μL of internal standard solution (4,4-dichlorodiphenyltrichloroethane [DDT] or griseofulvin 100 μg/mL for simvastatin and pravastatin containing samples, respectively) was added, and samples were vortex mixed for 30 seconds. Proteins were precipitated by the addition of 300 μL of chilled ACN, and samples were vortex mixed for 1 minute and then centrifuged at 900g for 10 minutes at 4°C. […]
HPLC analysis was performed using Waters Alliance 2965 separation module equipped with Waters 996 Photodiode Array Detector and integrated autosampler. […] Chromatographic separation was monitored by photodiode array detector at 238 nm with an injection volume of 20 μL.

For `CC[C@H](C)C(=O)O[C@H]1C[C@H](O)C=C2C=C[C@H](C)[C@H](CC[C@@H](O)C[C@@H](O)CC(=O)O)[C@H]21` [PVA, pravastatin hydroxy acid sodium], the “intracellular levels of pravastatin” value [1] was “below the limit of quantification” and the “intracellular levels of pravastatin” value [2] was “below the limit of quantification”.

With `CCC(C)(C)C(=O)O[C@H]1C[C@@H](C)C=C2C=C[C@H](C)[C@H](CC[C@@H](O)C[C@@H](O)CC(=O)O)[C@H]21` [SVA, simvastatin hydroxy acid ammonium salt] the “increase in uptake at acidic extracellular pH” value ([2]; 1 μmol/L SVA) was “more than 2 folds”, the “reduction in uptake under alkaline pH” value ([2]; 1 μmol/L SVA) was “approximately 50%” and the IC50 ([3]; acidic medium (pH 6.8)) was 2.22 ± 0.04 µM. The IC50 ([3]; alkaline medium (pH 7.8)) was 16.9 ± 0.48 µM, the IC50 ([3]; neutral medium (pH 7.4)) was 4.35 ± 0.09 µM and the IC50 [4] was 65.4 ± 2.69 µM.

With `CC[C@H](C)C(=O)O[C@H]1C[C@H](O)C=C2C=C[C@H](C)[C@H](CC[C@@H]3C[C@@H](O)CC(=O)O3)[C@H]21` [PVL, pravastatin lactone] the half-life at 50 μmol/L ([5]; pH 6.8, 50 μmol/L) was 21.2 ± 1.75 h, the half-life at 50 μmol/L ([5]; pH 7.0, 50 μmol/L) was 13 ± 1.38 h and the half-life at 50 μmol/L ([5]; pH 7.2, 50 μmol/L) was 9.36 ± 1.57 h. The half-life at 50 μmol/L ([5]; pH 7.4, 50 μmol/L) was 6.89 ± 0.41 h, the half-life at 50 μmol/L ([5]; pH 7.6, 50 μmol/L) was 5.59 ± 0.49 h and the half-life at 50 μmol/L ([5]; pH 7.8, 50 μmol/L) was 4.98 ± 0.44 h. For the same compound, the “proportion of lactone converted to the hydroxy acid form” value ([6]; alkaline pH) was ~99%, the half-life at 50 μmol/L ([6]; pH 6.8, 50 μmol/L) was 8.84 ± 0.31 h and the half-life at 50 μmol/L ([6]; pH 7.0, 50 μmol/L) was 7.39 ± 0.22 h. The half-life at 50 μmol/L ([6]; pH 7.2, 50 μmol/L) was 6.61 ± 0.95 h, the half-life at 50 μmol/L ([6]; pH 7.4, 50 μmol/L) was 6.85 ± 0.54 h and the “proportion of lactone converted to the hydroxy acid form” value ([6]; physiological pH) was ~98%. It also gave a half-life at 50 μmol/L ([7]; pH 6.8, 50 μmol/L) of 17.3 ± 4 h, a half-life at 50 μmol/L ([7]; pH 7.2, 50 μmol/L) of 11.9 ± 2.71 h and a half-life at 50 μmol/L ([7]; pH 7.4, 50 μmol/L) of 9.72 ± 1.42 h. The half-life at 50 μmol/L ([7]; pH 7.8, 50 μmol/L) was 10.7 ± 0.81 h, the “intracellular levels of pravastatin” value [1] was “below the limit of quantification” and the “intracellular levels of pravastatin” value [2] was “below the limit of quantification”.
